Entries after “also recorded” stand apart in the source; their conditions may differ.
Experiments:
Type in all cases: cell-based
[1] = tested on: HEK-293 WT cells; assay: Cytotoxicity assay (CellTiter Blue); conditions: 10 μM, 24 h, nontransfected HEK-293 cells
Experimental: HEK-293 WT cells were seeded at 4 × 10^4 cells/well in 96-well plates precoated with poly-L-lysine. After 24 h, the cells were washed with DPBS and treated with test compounds (10 μM) in 2% FBS-containing medium for 24 h. After this, the medium containing the test compounds was replaced with 20% CellTiter-Blue reagent (Promega) in 2% FBS medium. After a 2-h incubation, fluorescence (excitation: […]; emission: […]) was measured using a Clariostar plate reader. Data were normalized to untreated control cells (100%) and wells without cells (0%).
5 Concentration inhibition curve determination for compound 2g (A) and evaluation of cytotoxicity for compounds 2, 9, and 2g. […] The data on the graph represent the mean from three independent experiments (n = 3 replicates per experiment). (B) The cytotoxicity of the compounds was evaluated on nontransfected HEK-293 cells using a CellTiter Blue assay. The cells were incubated for 24 h with the compounds at 10 μM. The fluorescent signal obtained from vehicle-treated cells (0.1% DMSO) was used to normalize the data to 100%, and the one obtained from wells not containing cells (BLANK) was set as 0%. The data are the combination of three biological replicates (error bars represent the SEM (n = 3)) analyzed by one-way ANOVA using Dunnet’s function (P**** < 0.0001; **< 0.002; * < 0.02; ns, non significant).
The potential cytotoxicity of the hit compounds identified, 2, 9, and 2g, was assessed at 10 μM by CellTiter Blue assay using nontransfected HEK-293 cells (Figure B).

[2] = target: T1, hP2X7 (Homo sapiens, UniProt Q99572); assay: Membrane Potential Red (MPR) dye assay, 1321 N1 cells stably transfected with hP2X7; conditions: compound 10 μM, 700 μM ATP
T1 construct: expressed in transfected cells; host or cells: HEK-293, stably transfected (gift of E. Adinolfi's group, Ferrara University)
T1 sequence (Q99572 1-595): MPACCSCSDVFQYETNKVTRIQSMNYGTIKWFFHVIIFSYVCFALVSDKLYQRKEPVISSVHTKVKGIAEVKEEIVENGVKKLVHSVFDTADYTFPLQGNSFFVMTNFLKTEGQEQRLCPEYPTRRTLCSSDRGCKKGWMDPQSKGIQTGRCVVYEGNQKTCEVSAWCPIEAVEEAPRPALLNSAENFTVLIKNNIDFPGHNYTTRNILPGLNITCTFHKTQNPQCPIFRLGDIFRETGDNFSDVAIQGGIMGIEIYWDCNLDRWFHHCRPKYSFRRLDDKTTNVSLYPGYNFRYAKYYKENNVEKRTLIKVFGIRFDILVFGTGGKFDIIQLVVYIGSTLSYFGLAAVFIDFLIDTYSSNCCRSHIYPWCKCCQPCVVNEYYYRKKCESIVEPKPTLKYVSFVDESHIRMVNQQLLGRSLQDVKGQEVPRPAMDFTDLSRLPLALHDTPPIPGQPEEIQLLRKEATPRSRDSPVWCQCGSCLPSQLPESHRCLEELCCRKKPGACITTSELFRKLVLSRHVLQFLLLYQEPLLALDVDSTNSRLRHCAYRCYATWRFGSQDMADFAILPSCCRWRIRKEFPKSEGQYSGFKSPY

[3] = target: T1, hP2X7; assay: as above
Experimental: Astrocytoma 1321 N1 (established by Dr. Gaia Pasqualetto) and HEK-293 (kindly gifted by E. Adinolfi’s group, Ferrara University) both stably transfected with hP2X7, were used to assess the activity of the small molecules selected from the VS. Cells were maintained in DMEM:F12 (PanBiotech) supplemented with 10% FBS, 1% pen-strep, and 150 μg/mL G418 (PanBiotech).
Cells were plated as described for the YO-PRO 1 dye uptake assay. MPR dye (Molecular Devices) was prepared following the manufacturer’s protocol and diluted 1:10 in ECS-LD buffer. After washing with DPBS, cells were incubated with the dye for 30 min at 37 °C. Fluorescence changes (excitation: 525 nm; emission: 560 nm) were recorded using a Clariostar plate reader during ATP-induced membrane depolarization. Baseline fluorescence was recorded for 5 cycles, and ATP was added via an automated injector (10 μL). Membrane depolarization was quantified as the ratio of the maximal fluorescence change over baseline intensity (Δ(F max–F0)/F0)).
2 Initial screening assays to identify hit compounds. (A) The compounds were screened at 30 μM in the YO-PRO 1 dye uptake using 1321 N1 cells stably transfected with hP2X7. Compound activity was evaluated along a time of 20 min (75 s per cycle) after ATP addition (700 μM). The fluorescence intensity (FI) values of the first 10 cycles were considered for assessing their ability to inhibit hP2X7. Compound responses were normalized to the fluorescent signal recorded on 0.3% DMSO cells treated with 700 μM ATP of each plate. […] (B) Compounds screened at 10 μM using MPR using 1321 N1 cells stably transfected with hP2X7. The compound activity was evaluated for 5 min after ATP addition (15 s per cycle). The fluorescence intensity recorded in the first cycles (before reaching a plateau response) was considered for assessing the small molecule’s ability to inhibit hP2X7. Compound responses were normalized to the fluorescence signal recorded on 0.1% DMSO cells treated with 700 μM ATP of each plate. […] One-way ANOVA and Dunnet test were used for statistical analysis (****P < 0.0001), (*P < 0.02). […]

SMILES	reduction in cell viability [1]	activity in MPR screen, hP2X7-induced membrane depolarization [2]	EC50 ([3]; MPR assay, red dye, 1321 N1 hP2X7 cells, one biological replicate, read-out: ATP EC50) [µM]	statistically significant inhibition, % of control, initial MPR screen ([3]; compound 10 μM, 700 μM ATP)
O=C(NCCc1ccccc1)NC(Cc1ccc2c(c1)OCO2)Cc1ccc2c(c1)OCO2 [Compound 2]	~10%	active; also recorded: statistically inhibited	–	–
Nc1ncnc2c1ncn2[C@@H]1O[C@H](COP(=O)(O)OP(=O)(O)OP(=O)(O)O)[C@@H](O)[C@H]1O [ATP, reference compound]	–	–	679	–
O=C(CSc1ccccc1C(=O)Nc1ccnn1Cc1cccnc1)Nc1ccc2c(c1)OCO2 [Compound 9]	no significant reduction in cell viability	active; also recorded: statistically inhibited	–	65 % of control
